Target: T1, human GABA A α5β3γ2 receptor (Homo sapiens, UniProt P18507+P31644)
T1 construct: expressed in transfected cells; host or cells: HEK293 (transiently transfected), membranes
Assay: [3H]flumazenil competition binding to HEK293 cells expressing human GABA A receptors
Conditions: competition for [3H]flumazenil (0.5 nM for α5); HEK293 cells expressing human (transiently transfected) receptors; means of two determinations; read-out: hKi GABA Aα5
Protocol: The affinity of compounds at GABA A receptor subtypes was measured by competition for [^3H]flumazenil (85 Ci/mmol; Roche) binding to HEK293 cells expressing rat (stably transfected) or human (transiently transfected) receptors of composition α1β3γ2, α2β3γ2, α3β3γ2 and α5β3γ2.
Cell pellets were suspended in Krebs-tris buffer (4.8 mM KCl, 1.2 mM CaCl2, 1.2 mM MgCl2, 120 mM NaCl, 15 mM Tris; pH 7.5; binding assay buffer), homogenized by polytron for ca. 20 sec on ice and centrifuged for 60 min at 4° C. (50000 g; Sorvall, rotor: SM24=20000 rpm). The cell pellets were resuspended in Krebs-tris buffer and homogenized by polytron for ca. 15 sec on ice. Protein was measured (Bradford method, Bio-Rad) and aliquots of 1 mL were prepared and stored at −80° C.
Radioligand binding assays were carried out in a volume of […] (96-well plates) which contained […] of cell membranes, [^3H]flumazenil at a concentration of 1 nM for α1, α2, α3 subunits and 0.5 nM for α5 subunits and the test compound in the range of […]. Nonspecific binding was defined by 10^−5 M diazepam and typically represented less than 5% of the total binding. Assays were incubated to equilibrium for 1 hour at 4° C. and harvested onto GF/C uni-filters (Packard) by filtration using a Packard harvester and washing with ice-cold wash buffer (50 mM Tris; pH 7.5). After drying, filter-retained radioactivity was detected by liquid scintillation counting. Ki values were calculated using Excel-Fit (Microsoft) and are the means of two determinations.
Representative test results, obtained by the above described assay measuring binding affinity to HEK293 cells expressing human (h) receptors, are shown in table 1 below.

Row | SMILES | Ki [µM]
1 | CCCCc1noc(C)c1COc1ccc(C(=O)N2CCS(=O)(=O)CC2)cn1 [Example 18, [6-((3-Butyl-5-methyl-isoxazol-4-yl)methoxy)-pyridin-3-yl]-(1,1-dioxo-1,6-thiomorpholin-4-yl)-methanone] | 0.0211
2 | Cc1onc(OCC(C)C)c1COc1ccc(C(=O)NC(C)C)cn1 [Example 39, 6-((3-Isobutoxy-5-methyl-isoxazol-4-yl)methoxy)-N-isopropyl-nicotinamide] | 0.0047
3 | CCCCc1noc(C)c1COc1ccc(C(=O)NC2CCOCC2)cn1 [Example 7, 6-((3-Butyl-5-methyl-isoxazol-4-yl)methoxy)-N-(tetrahydro-pyran-4-yl)-nicotinamide] | 0.0052
4 | CCCCc1noc(C)c1COc1ccc(C(=O)NC(C)(C)CO)cn1 [Example 8, 6-((3-Butyl-5-methyl-isoxazol-4-yl)methoxy)-N-(2-hydroxy-1,1-dimethyl-ethyl)-nicotinamide] | 0.0152
5 | CCCCc1noc(C)c1COc1ccc(C(=O)NCC(C)O)cn1 (stereo not drawn) [Example 17, 6-((3-Butyl-5-methyl-isoxazol-4-yl)methoxy)-N-(2-hydroxy-propyl)-nicotinamide] | 0.0052
6 | Cc1onc(C2CCCCC2)c1COc1ccc(C(=O)NC(C)(C)CO)cn1 [Example 35, 6-((3-Cyclohexyl-5-methyl-isoxazol-4-yl)methoxy)-N-(2-hydroxy-1,1-dimethyl-ethyl)-nicotinamide] | 0.0203
